Data taken from paper PMC6277767, “Broad and Region-Specific Impacts of the Synthetic Cannabinoid CP 55,940 in Adolescent and Adult Female Mouse Brains” (Frontiers in Molecular Neuroscience, 2018).

Tested on: CD1 female mouse brain lipidome
Assay: Brain-region lipid levels (HPLC/MS/MS lipidomics) 2 h after single i.p. 3 mg/kg CP 55,940 vs vehicle
Assay type: in vivo
Method: The Bloomington Institutional Animal Care and Use Committee of Indiana University reviewed and approved the animal procedures. Female mice from the CD1 strain were utilized to match our study examining THC’s effects on the brain lipidome ([Leishman et al., 2018]). Mice were given a single i.p. injection of either 3 mg/kg CP or 1:1:18 cremophor:ethanol:saline vehicle (please refer to the section “3 mg/kg CP Is Relevant for Synthetic Cannabinoid Abuse and Has Stronger Effects on the Female Mouse Brain Lipidome During Adolescence” for a justification of dose and use of female mice). Three different age groups were given injections: PND 35 and PND 50 adolescents, and adult mice (PND 113). At least eight mice in each age group received CP and at least eight received vehicle. Matching the THC study time course ([Leishman et al., 2018]), mice were sacrificed via rapid decapitation 2 h after injection. Brains were immediately removed and flash-frozen in liquid nitrogen, and then stored at -80°C until dissections were performed. Brains were dissected on an ice-cold dissection plate into the following regions: STR, HIPP, CER, THAL, CTX, HYP, MID, and STEM. These abbreviations for these brain areas will be used exclusively when discussing the results generated by these specific dissections. Each dissected area was immediately placed in liquid nitrogen and then stored at -80°C until used for lipid extraction.
Tissue extracts were performed as previously described ([Bradshaw et al., 2006]; [Stuart et al., 2013]; [Raboune et al., 2014]; [Leishman et al., 2016a],[b], [2017], [2018]). First, samples were shock frozen in liquid nitrogen, weighed, and transferred to a centrifuge tube. The mass of the largest sample was multiplied by 50 to determine how many milliliters of HPLC-grade methanol (Fisher, Fair Lawn, NJ, United States) to add. Then, samples were spiked with 500 pmol deuterium-labeled NAGly (d8NAGly; Cayman Chemical, Ann Arbor, MI, United States). Samples were placed on ice in darkness for 2 h then individually homogenized and centrifuged at 19,000 × g for 20 min at 20°C. Supernatants were diluted with HPLC water (purified in house) to make a solution of 75% water, 25% supernatant. Lipids were partially purified on C18 solid phase extraction columns (Agilent, Palo Alto, CA, United States). A series of four elutions with 1.5 mL of 60%, 75%, 85%, and 100% methanol were collected ([Stuart et al., 2013]; [Leishman et al., 2016a],[b], [2018]).
As previously described ([Bradshaw et al., 2006]; [Tan et al., 2006]; [Smoum et al., 2010]; [Stuart et al., 2013]; [Tortoriello et al., 2013]; [Raboune et al., 2014]; [Leishman et al., 2016a],[b], [2017], [2018]), samples were analyzed using an Applied Biosystems API 3000 triple quadrupole mass spectrometer with electrospray ionization (Foster City, CA, United States). Using an Agilent XDB-C18 reversed phase analytical column and optimized mobile phase gradients, 20 μL from each elution were chromatographed. Two Shimadzu 10ADvp pumps (Columbia, MD, United States) provided the pressure for gradient elution. Mobile phase A: 20% methanol, 80% water (v/v) and 1 mM ammonium acetate (Sigma, St. Louis, MO, United States). Mobile phase B: 100% methanol, 1 mM ammonium acetate. Every method run began with 0% mobile phase B, reached 100% mobile phase B flowing at 0.2 mL/min, and gradually returned to 0% mobile phase B.
This screening library will be referred to as the lipidome when discussing data from this study. HPLC/MS/MS data were analyzed using Analyst software (Applied Biosystems) ([Bradshaw et al., 2006]; [Tan et al., 2006]; [Stuart et al., 2013]; [Tortoriello et al., 2013]; [Raboune et al., 2014]; [Leishman et al., 2016a],[b], [2017], [2018]). Chromatograms (Supplementary Figure 3) were generated by determining the retention time of analytes from the analytical column with a [M-1] or [M+1] parent peak and a fragmentation peak corresponding to the programmed values. […]

SMILES: CCCCCCC(C)(C)c1ccc([C@@H]2C[C@H](O)CC[C@H]2CCCO)c(O)c1 [CP 55,940]
- changes in lipid levels that were decreases (PND 50 MID): two
- number of lipids changed (PND 50 MID, 62 detected): 26
- 2-linoleoyl glycerol level vs vehicle (PND 50 STEM): ↓ (1-1.49 times lower than vehicle)
- 2-oleoyl glycerol level vs vehicle (PND 50 STEM): ↓ (1-1.49 times lower than vehicle)
- 2-palmitoyl glycerol level vs vehicle (PND 50 STEM): ↓ (1-1.49 times lower than vehicle)
- 6-ketoPGF1α level vs vehicle (PND 50 STEM): ↓ (1-1.49 times lower than vehicle)
- Linoleic acid level vs vehicle (PND 50 STEM): ↓ (1-1.49 times lower than vehicle)
- N-arachidonoyl GABA level vs vehicle (PND 50 STEM): ↓ (1-1.49 times lower than vehicle)
- N-arachidonoyl phenylalanine level vs vehicle (PND 50 STEM): ↑ (1-1.49 times higher than vehicle)
- N-arachidonoyl serine level vs vehicle (PND 50 STEM): ↓ (1-1.49 times lower than vehicle)
- N-arachidonoyl taurine level vs vehicle (PND 50 STEM): ↓ (1-1.49 times lower than vehicle)
- N-arachidonoyl tyrosine level vs vehicle (PND 50 STEM): ↓ (1-1.49 times lower than vehicle)
- N-oleoyl methionine level vs vehicle (PND 50 STEM): ↓ (1-1.49 times lower than vehicle)
- N-palmitoyl leucine level vs vehicle (PND 50 STEM): ↑ (1-1.49 times higher than vehicle)
- N-palmitoyl tyrosine level vs vehicle (PND 50 STEM): ↑ (1-1.49 times higher than vehicle)
- Oleic Acid level vs vehicle (PND 50 STEM): ↓ (1-1.49 times lower than vehicle)
- PGE2 level vs vehicle (PND 50 STEM): ↓ (1-1.49 times lower than vehicle)
- PGF2α level vs vehicle (PND 50 STEM): ↓ (1-1.49 times lower than vehicle)
- 2-arachidonoyl glycerol level vs vehicle (PND 50 STR): ↓ (1-1.49 times lower than vehicle)
- 2-linoleoyl glycerol level vs vehicle (PND 50 STR): ↓ (1-1.49 times lower than vehicle)
- Arachidonic acid level vs vehicle (PND 50 STR): ↓ (1-1.49 times lower than vehicle)
- Linoleic acid level vs vehicle (PND 50 STR): ↓ (1-1.49 times lower than vehicle)
- N-arachidonoyl GABA level vs vehicle (PND 50 STR): ↓ (1-1.49 times lower than vehicle)
- N-arachidonoyl glycine level vs vehicle (PND 50 STR): ↓↓ (1.50-1.99 times lower than vehicle)
- N-arachidonoyl phenylalanine level vs vehicle (PND 50 STR): ↓ (1-1.49 times lower than vehicle)
- N-arachidonoyl taurine level vs vehicle (PND 50 STR): ↓ (1-1.49 times lower than vehicle)
- N-docosahexaenoyl GABA level vs vehicle (PND 50 STR): ↓ (1-1.49 times lower than vehicle)
- N-docosahexaenoyl glycine level vs vehicle (PND 50 STR): ↓↓ (1.50-1.99 times lower than vehicle)
- N-palmitoyl leucine level vs vehicle (PND 50 STR): ↑ (1-1.49 times higher than vehicle)
- N-palmitoyl tyrosine level vs vehicle (PND 50 STR): ↑ (1-1.49 times higher than vehicle)
- N-palmitoyl valine level vs vehicle (PND 50 STR): ↑↑ (1.50-1.99 times higher than vehicle)
- Oleic Acid level vs vehicle (PND 50 STR): ↓ (1-1.49 times lower than vehicle)
- PGF2α level vs vehicle (PND 50 STR): ↑ (1-1.49 times higher than vehicle)
- 2-arachidonoyl glycerol level vs vehicle (PND 50 THAL): ↓ (1-1.49 times lower than vehicle)
- 2-linoleoyl glycerol level vs vehicle (PND 50 THAL): ↓ (1-1.49 times lower than vehicle)
- 2-oleoyl glycerol level vs vehicle (PND 50 THAL): ↓ (1-1.49 times lower than vehicle)
- 6-ketoPGF1α level vs vehicle (PND 50 THAL): ↑↑ (1.50-1.99 times higher than vehicle)
- Arachidonic acid level vs vehicle (PND 50 THAL): ↓ (1-1.49 times lower than vehicle)
- Linoleic acid level vs vehicle (PND 50 THAL): ↓ (1-1.49 times lower than vehicle)
- N-arachidonoyl GABA level vs vehicle (PND 50 THAL): ↓ (1-1.49 times lower than vehicle)
- N-arachidonoyl ethanolamine level vs vehicle (PND 50 THAL): ↓ (1-1.49 times lower than vehicle)
- N-arachidonoyl glycine level vs vehicle (PND 50 THAL): ↓↓ (1.50-1.99 times lower than vehicle)
- N-arachidonoyl phenylalanine level vs vehicle (PND 50 THAL): ↓↓ (1.50-1.99 times lower than vehicle)
- N-arachidonoyl taurine level vs vehicle (PND 50 THAL): ↓ (1-1.49 times lower than vehicle)
- N-arachidonoyl tyrosine level vs vehicle (PND 50 THAL): ↓ (1-1.49 times lower than vehicle)
- N-docosahexaenoyl GABA level vs vehicle (PND 50 THAL): ↓ (1-1.49 times lower than vehicle)
- N-linoleoyl GABA level vs vehicle (PND 50 THAL): ↓↓ (1.50-1.99 times lower than vehicle)
- N-palmitoyl leucine level vs vehicle (PND 50 THAL): ↑ (1-1.49 times higher than vehicle)
- N-palmitoyl serine level vs vehicle (PND 50 THAL): ↓ (1-1.49 times lower than vehicle)
- N-stearoyl serine level vs vehicle (PND 50 THAL): ↓ (1-1.49 times lower than vehicle)
- Oleic Acid level vs vehicle (PND 50 THAL): ↓ (1-1.49 times lower than vehicle)
- PGE2 level vs vehicle (PND 50 THAL): ↓ (1-1.49 times lower than vehicle)
- PGF2α level vs vehicle (PND 50 THAL): ↓ (1-1.49 times lower than vehicle)
- changes in NAEs (all decreases) (PND 50 brain): 16
- changes in lipoamines derived from AA (PND 50 brain): 41
- decreases in 2-acyl glycerol levels (PND 50 brain): 17
- decreases in PG levels (PND 50 brain): 11
- decreases in free fatty acid levels (PND 50 brain): 16
- increases in PG levels (PND 50 brain): 7
- percentage of detected lipids modified with acute CP (PND 50 brain, 450 detected): 31.33%
- total changes in lipid levels across the eight regions (adult): 97
- 2-arachidonoyl glycerol level vs vehicle (adult CER): ↓ (1-1.49 times lower than vehicle)
- 2-linoleoyl glycerol level vs vehicle (adult CER): ↓↓ (1.50-1.99 times lower than vehicle)
- 2-oleoyl glycerol level vs vehicle (adult CER): ↓ (1-1.49 times lower than vehicle)
- 6-ketoPGF1α level vs vehicle (adult CER): ↓ (1-1.49 times lower than vehicle)
- Arachidonic acid level vs vehicle (adult CER): ↓ (1-1.49 times lower than vehicle)
- Linoleic acid level vs vehicle (adult CER): ↓↓ (1.50-1.99 times lower than vehicle)
- N-arachidonoyl GABA level vs vehicle (adult CER): ↓↓ (1.50-1.99 times lower than vehicle)
- N-arachidonoyl ethanolamine level vs vehicle (adult CER): ↓↓ (1.50-1.99 times lower than vehicle)
- N-arachidonoyl phenylalanine level vs vehicle (adult CER): ↓↓↓ (2-2.99 times lower than vehicle)
- N-arachidonoyl taurine level vs vehicle (adult CER): ↓ (1-1.49 times lower than vehicle)
- N-docosahexaenoyl GABA level vs vehicle (adult CER): ↓ (1-1.49 times lower than vehicle)
- N-docosahexaenoyl ethanolamine level vs vehicle (adult CER): ↓ (1-1.49 times lower than vehicle)
- N-linoleoyl GABA level vs vehicle (adult CER): ↓ (1-1.49 times lower than vehicle)
- N-linoleoyl ethanolamine level vs vehicle (adult CER): ↓↓ (1.50-1.99 times lower than vehicle)
- N-oleoyl serine level vs vehicle (adult CER): ↓ (1-1.49 times lower than vehicle)
- N-oleoyl valine level vs vehicle (adult CER): ↑↑↑ (2-2.99 times higher than vehicle)
- N-palmitoyl tyrosine level vs vehicle (adult CER): ↓ (1-1.49 times lower than vehicle)
- Oleic Acid level vs vehicle (adult CER): ↓↓ (1.50-1.99 times lower than vehicle)
- PGE2 level vs vehicle (adult CER): ↓ (1-1.49 times lower than vehicle)
- PGF2α level vs vehicle (adult CER): ↓ (1-1.49 times lower than vehicle)
- changes in lipid levels that were decreases (adult CER): 20
- changes in lipid levels that were increases (adult CER): 1
- phosphoLEA level vs vehicle (adult CER): ↓ (1-1.49 times lower than vehicle)
- number of lipids changed (adult CER, 53 detected): 21
- 2-linoleoyl glycerol level vs vehicle (adult CTX): ↓ (1-1.49 times lower than vehicle)
- 6-ketoPGF1α level vs vehicle (adult CTX): ↓ (1-1.49 times lower than vehicle)
- Arachidonic acid level vs vehicle (adult CTX): ↓ (1-1.49 times lower than vehicle)
- N-arachidonoyl taurine level vs vehicle (adult CTX): ↓ (1-1.49 times lower than vehicle)
- N-linoleoyl GABA level vs vehicle (adult CTX): ↓ (1-1.49 times lower than vehicle)
- N-palmitoyl valine level vs vehicle (adult CTX): ↑ (1-1.49 times higher than vehicle)
- N-stearoyl phenylalanine level vs vehicle (adult CTX): ↓↓ (1.50-1.99 times lower than vehicle)
- PGF2α level vs vehicle (adult CTX): ↓ (1-1.49 times lower than vehicle)
- number of lipids changed (adult CTX, 58 detected): eight
- 2-linoleoyl glycerol level vs vehicle (adult HIPP): ↓ (1-1.49 times lower than vehicle)
- N-arachidonoyl GABA level vs vehicle (adult HIPP): ↓ (1-1.49 times lower than vehicle)
- N-arachidonoyl alanine level vs vehicle (adult HIPP): ↓ (1-1.49 times lower than vehicle)
- N-arachidonoyl glycine level vs vehicle (adult HIPP): ↓ (1-1.49 times lower than vehicle)
- N-arachidonoyl phenylalanine level vs vehicle (adult HIPP): ↓↓ (1.50-1.99 times lower than vehicle)
- N-docosahexaenoyl GABA level vs vehicle (adult HIPP): ↓ (1-1.49 times lower than vehicle)
- N-oleoyl GABA level vs vehicle (adult HIPP): ↓ (1-1.49 times lower than vehicle)
- N-oleoyl phenylalanine level vs vehicle (adult HIPP): ↓ (1-1.49 times lower than vehicle)
